# From paper PMC8800111 (The Journal of Biological Chemistry, 2021)
# What was measured:
# Format in all cases: cell-based
# [1] = target: proteins of U3A human fibrosarcoma cells (4462 proteins detected) (Homo sapiens, UniProt Q9P0K7); settings: protein RAI14; soluble abundance after heat, U3A cells
# [2] = target: proteins of U3A human fibrosarcoma cells (4462 proteins detected) (Homo sapiens, UniProt Q9UH65); settings: protein SWAP70; soluble abundance after heat, U3A cells
# [3] = target: proteins of U3A human fibrosarcoma cells (4462 proteins detected) (Homo sapiens, UniProt Q6YHU6); settings: protein THADA; soluble abundance after heat, U3A cells
# [4] = target: proteins of U3A human fibrosarcoma cells (4462 proteins detected) (Homo sapiens, UniProt P51114); settings: protein FXR1; U3A cells
# [5] = target: proteins of U3A human fibrosarcoma cells (4462 proteins detected) (Homo sapiens, UniProt P35606); settings: protein COPB2; soluble abundance after heat, U3A cells
# [6] = target: proteins of U3A human fibrosarcoma cells (4462 proteins detected) (Homo sapiens, UniProt P42766); settings: protein RPL35; U3A cells
# [7] = target: proteins of U3A human fibrosarcoma cells (4462 proteins detected) (Homo sapiens, UniProt Q01826); settings: protein SATB1; U3A cells
# [8] = target: proteins of U3A human fibrosarcoma cells (4462 proteins detected) (Homo sapiens, UniProt P17252); settings: protein PRKCA; U3A cells
# [9] = target: proteins of U3A human fibrosarcoma cells (4462 proteins detected) (Homo sapiens, UniProt Q9UNZ2); settings: protein NSFL1C, U3A cells
# [10] = target: proteins of U3A human fibrosarcoma cells (4462 proteins detected) (Homo sapiens, UniProt Q1ED39); settings: protein KNOP1; U3A cells
# [11] = target: proteins of U3A human fibrosarcoma cells (4462 proteins detected) (Homo sapiens, UniProt Q8NHQ9); settings: protein DDX55; U3A cells
# [12] = target: proteins of U3A human fibrosarcoma cells (4462 proteins detected) (Homo sapiens, UniProt Q68CP9); settings: protein ARID2; U3A cells
# [13] = target: proteins of U3A human fibrosarcoma cells (4462 proteins detected) (Homo sapiens, UniProt Q9HCN4); settings: protein GPN1; soluble abundance after heat, U3A cells
# [14] = target: proteins of U3A human fibrosarcoma cells (4462 proteins detected) (Homo sapiens, UniProt P36507); settings: protein MAP2K2; U3A cells
# [15] = target: proteins of U3A human fibrosarcoma cells (4462 proteins detected) (Homo sapiens, UniProt P00568); settings: protein AK1, U3A cells
# [16] = target: proteins of U3A human fibrosarcoma cells (4462 proteins detected) (Homo sapiens, UniProt P43243); settings: protein MATR3; soluble abundance after heat, U3A cells
# [17] = target: proteins of U3A human fibrosarcoma cells (4462 proteins detected) (Homo sapiens, UniProt O75351); settings: protein VPS4B; soluble abundance after heat, U3A cells
# [18] = target: proteins of U3A human fibrosarcoma cells (4462 proteins detected) (Homo sapiens, UniProt P25440); settings: protein BRD2; soluble abundance after heat, U3A cells
# [19] = target: proteins of U3A human fibrosarcoma cells (4462 proteins detected) (Homo sapiens, UniProt P05121); settings: protein SERPINE1; U3A cells
# [20] = target: proteins of U3A human fibrosarcoma cells (4462 proteins detected) (Homo sapiens, UniProt P55769); settings: protein NHP2L1; soluble abundance after heat, U3A cells
# [21] = target: proteins of U3A human fibrosarcoma cells (4462 proteins detected) (Homo sapiens, UniProt Q16763); settings: protein UBE2S; U3A, 10 μM, 2 h
# [22] = target: proteins of U3A human fibrosarcoma cells (4462 proteins detected) (Homo sapiens, UniProt Q13829); settings: protein TNFAIP1; U3A cells
# [23] = target: proteins of U3A human fibrosarcoma cells (4462 proteins detected) (Homo sapiens, UniProt P63096); settings: protein GNAI1; soluble abundance after heat, U3A cells
# [24] = target: proteins of U3A human fibrosarcoma cells (4462 proteins detected) (Homo sapiens, UniProt O14646); settings: protein CHD1, U3A cells
# [25] = target: proteins of U3A human fibrosarcoma cells (4462 proteins detected) (Homo sapiens, UniProt Q14790); settings: protein CASP8; U3A, 10 μM, 2 h
# [26] = target: proteins of U3A human fibrosarcoma cells (4462 proteins detected) (Homo sapiens, UniProt Q9GZV4); settings: protein EIF5A2; U3A, 10 μM, 2 h
# [27] = target: proteins of U3A human fibrosarcoma cells (4462 proteins detected) (Homo sapiens, UniProt O75147); settings: protein OBSL1, U3A cells
# [28] = target: proteins of U3A human fibrosarcoma cells (4462 proteins detected) (Homo sapiens, UniProt Q9BYM8); settings: protein RBCK1; U3A, 10 μM, 2 h
# [29] = target: proteins of U3A human fibrosarcoma cells (4462 proteins detected) (Homo sapiens, UniProt Q99633); settings: protein PRPF18; U3A cells
# proteins of U3A human fibrosarcoma cells (4462 proteins detected) (Homo sapiens, UniProt Q13829), sequence (Q13829 whole entry): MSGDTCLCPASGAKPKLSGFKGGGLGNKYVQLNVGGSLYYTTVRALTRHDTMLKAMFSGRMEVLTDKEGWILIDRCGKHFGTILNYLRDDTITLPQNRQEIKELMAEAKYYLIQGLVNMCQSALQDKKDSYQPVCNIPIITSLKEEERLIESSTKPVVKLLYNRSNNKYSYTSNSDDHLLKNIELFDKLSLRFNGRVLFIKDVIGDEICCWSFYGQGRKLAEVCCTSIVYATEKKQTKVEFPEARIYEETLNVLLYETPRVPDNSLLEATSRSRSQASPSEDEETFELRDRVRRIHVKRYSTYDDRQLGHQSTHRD
# proteins of U3A human fibrosarcoma cells (4462 proteins detected) (Homo sapiens, UniProt P51114), sequence (P51114 whole entry): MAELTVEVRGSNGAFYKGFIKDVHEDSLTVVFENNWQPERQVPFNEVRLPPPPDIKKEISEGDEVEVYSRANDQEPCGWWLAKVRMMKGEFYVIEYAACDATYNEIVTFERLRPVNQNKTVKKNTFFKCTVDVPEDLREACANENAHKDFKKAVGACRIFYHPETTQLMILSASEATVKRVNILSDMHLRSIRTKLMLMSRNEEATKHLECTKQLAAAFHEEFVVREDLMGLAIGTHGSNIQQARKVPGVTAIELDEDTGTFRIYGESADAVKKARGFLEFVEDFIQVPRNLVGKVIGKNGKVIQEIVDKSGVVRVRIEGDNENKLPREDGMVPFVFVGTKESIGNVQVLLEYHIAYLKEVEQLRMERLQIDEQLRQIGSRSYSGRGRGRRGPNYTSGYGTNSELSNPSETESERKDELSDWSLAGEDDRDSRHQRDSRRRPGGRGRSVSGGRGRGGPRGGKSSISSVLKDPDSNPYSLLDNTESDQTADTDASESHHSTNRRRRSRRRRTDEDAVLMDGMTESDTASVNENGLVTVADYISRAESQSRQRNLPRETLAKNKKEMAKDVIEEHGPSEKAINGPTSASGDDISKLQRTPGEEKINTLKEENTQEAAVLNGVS
# proteins of U3A human fibrosarcoma cells (4462 proteins detected) (Homo sapiens, UniProt Q9HCN4), sequence (Q9HCN4 whole entry): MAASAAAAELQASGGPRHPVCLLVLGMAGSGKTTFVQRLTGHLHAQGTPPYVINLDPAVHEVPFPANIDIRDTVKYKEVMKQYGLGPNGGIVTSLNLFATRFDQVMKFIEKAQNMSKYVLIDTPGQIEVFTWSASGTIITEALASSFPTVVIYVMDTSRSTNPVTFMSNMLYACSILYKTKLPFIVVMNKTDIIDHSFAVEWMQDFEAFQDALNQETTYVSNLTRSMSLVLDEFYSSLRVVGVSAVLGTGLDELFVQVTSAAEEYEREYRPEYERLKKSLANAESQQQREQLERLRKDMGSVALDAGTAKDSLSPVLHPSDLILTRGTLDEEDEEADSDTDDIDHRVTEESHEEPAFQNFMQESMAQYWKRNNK
# proteins of U3A human fibrosarcoma cells (4462 proteins detected) (Homo sapiens, UniProt Q01826), sequence (Q01826 whole entry): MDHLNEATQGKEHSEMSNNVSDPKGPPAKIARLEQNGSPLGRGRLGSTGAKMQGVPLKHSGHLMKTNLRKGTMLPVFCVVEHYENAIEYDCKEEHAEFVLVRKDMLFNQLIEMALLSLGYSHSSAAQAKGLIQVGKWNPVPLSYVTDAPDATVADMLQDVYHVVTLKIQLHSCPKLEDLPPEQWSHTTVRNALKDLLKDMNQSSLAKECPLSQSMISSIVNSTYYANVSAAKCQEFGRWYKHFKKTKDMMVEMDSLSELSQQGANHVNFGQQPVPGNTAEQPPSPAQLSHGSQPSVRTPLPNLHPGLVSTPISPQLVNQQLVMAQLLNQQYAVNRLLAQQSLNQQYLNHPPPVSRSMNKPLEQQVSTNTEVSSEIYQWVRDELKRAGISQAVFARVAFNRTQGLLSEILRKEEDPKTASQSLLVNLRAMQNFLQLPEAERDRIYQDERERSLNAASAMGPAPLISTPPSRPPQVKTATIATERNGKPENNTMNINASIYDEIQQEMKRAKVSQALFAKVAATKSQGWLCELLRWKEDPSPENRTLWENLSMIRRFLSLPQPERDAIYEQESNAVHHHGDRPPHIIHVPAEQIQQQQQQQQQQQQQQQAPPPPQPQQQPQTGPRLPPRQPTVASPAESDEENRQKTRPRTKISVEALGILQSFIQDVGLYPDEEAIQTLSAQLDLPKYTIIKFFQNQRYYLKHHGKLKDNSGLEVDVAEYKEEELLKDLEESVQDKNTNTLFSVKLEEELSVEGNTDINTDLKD
# proteins of U3A human fibrosarcoma cells (4462 proteins detected) (Homo sapiens, UniProt P55769), sequence (P55769 whole entry): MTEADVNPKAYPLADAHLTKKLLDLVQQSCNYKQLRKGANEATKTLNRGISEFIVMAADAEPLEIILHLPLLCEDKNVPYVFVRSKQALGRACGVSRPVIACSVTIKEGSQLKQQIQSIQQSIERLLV
# proteins of U3A human fibrosarcoma cells (4462 proteins detected) (Homo sapiens, UniProt O75351), sequence (O75351 whole entry): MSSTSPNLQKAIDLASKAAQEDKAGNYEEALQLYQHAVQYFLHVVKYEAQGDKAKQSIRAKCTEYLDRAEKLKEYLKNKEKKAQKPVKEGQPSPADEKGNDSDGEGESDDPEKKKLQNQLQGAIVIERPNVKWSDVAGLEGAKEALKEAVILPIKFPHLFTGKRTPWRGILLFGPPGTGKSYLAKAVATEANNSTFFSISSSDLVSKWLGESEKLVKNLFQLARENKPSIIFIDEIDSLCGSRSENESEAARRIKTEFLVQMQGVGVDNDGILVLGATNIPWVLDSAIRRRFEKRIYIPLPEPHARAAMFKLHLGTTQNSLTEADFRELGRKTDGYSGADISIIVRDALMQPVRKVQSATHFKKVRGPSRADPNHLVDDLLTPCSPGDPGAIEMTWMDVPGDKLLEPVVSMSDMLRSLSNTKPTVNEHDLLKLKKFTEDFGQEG
# proteins of U3A human fibrosarcoma cells (4462 proteins detected) (Homo sapiens, UniProt P43243), sequence (P43243 whole entry): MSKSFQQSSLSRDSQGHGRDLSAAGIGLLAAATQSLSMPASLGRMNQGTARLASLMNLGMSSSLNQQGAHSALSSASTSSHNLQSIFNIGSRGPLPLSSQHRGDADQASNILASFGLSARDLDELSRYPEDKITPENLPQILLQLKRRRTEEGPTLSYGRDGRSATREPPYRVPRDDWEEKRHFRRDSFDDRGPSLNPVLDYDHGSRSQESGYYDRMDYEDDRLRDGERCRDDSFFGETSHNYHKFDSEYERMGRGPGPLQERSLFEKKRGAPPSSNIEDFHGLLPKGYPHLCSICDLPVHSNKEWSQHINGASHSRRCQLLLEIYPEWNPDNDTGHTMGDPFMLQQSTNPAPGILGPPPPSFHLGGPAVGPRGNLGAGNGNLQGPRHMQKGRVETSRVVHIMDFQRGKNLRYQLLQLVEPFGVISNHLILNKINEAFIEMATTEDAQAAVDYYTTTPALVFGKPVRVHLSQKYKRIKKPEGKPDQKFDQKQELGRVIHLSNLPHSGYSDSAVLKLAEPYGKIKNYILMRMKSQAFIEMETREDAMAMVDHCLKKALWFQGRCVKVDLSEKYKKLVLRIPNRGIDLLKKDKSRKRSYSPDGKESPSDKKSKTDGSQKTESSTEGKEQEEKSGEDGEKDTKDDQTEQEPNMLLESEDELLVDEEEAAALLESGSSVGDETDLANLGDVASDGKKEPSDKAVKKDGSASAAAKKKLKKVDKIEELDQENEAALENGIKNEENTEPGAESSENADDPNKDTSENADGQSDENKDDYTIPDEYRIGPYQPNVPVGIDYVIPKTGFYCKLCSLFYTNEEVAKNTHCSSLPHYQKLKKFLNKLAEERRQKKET
# proteins of U3A human fibrosarcoma cells (4462 proteins detected) (Homo sapiens, UniProt P05121), sequence (P05121 24-402): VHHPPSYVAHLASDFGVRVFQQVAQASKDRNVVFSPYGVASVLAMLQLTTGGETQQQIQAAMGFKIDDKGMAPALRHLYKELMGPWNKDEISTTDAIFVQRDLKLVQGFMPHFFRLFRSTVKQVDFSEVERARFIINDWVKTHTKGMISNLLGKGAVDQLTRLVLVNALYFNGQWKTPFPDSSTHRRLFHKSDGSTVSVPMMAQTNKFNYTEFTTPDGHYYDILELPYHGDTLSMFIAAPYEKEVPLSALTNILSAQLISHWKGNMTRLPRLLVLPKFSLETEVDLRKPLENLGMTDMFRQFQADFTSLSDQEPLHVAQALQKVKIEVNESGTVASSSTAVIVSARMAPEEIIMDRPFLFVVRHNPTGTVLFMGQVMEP
# proteins of U3A human fibrosarcoma cells (4462 proteins detected) (Homo sapiens, UniProt Q14790), sequence (Q14790 217-479): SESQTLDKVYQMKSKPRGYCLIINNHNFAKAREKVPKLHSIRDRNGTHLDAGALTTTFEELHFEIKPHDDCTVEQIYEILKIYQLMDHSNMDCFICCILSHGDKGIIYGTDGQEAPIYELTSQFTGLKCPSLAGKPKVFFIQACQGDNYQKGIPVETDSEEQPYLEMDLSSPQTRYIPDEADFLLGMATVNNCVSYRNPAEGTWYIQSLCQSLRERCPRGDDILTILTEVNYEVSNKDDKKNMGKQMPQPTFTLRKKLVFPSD
# proteins of U3A human fibrosarcoma cells (4462 proteins detected) (Homo sapiens, UniProt Q9GZV4), sequence (Q9GZV4 whole entry): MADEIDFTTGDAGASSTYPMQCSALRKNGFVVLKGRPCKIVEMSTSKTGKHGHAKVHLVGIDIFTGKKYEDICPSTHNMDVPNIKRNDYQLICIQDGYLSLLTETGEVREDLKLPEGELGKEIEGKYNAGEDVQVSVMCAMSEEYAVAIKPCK
compound,measurement,setting,value
CCc1nc(N)nc(N)c1-c1ccc(Cl)cc1 [pyrimethamine],Log2 (PYR/DMSO),[1],0.15
same,Log2 (PYR/DMSO),[2],0.14
same,Log2 (PYR/DMSO),[3],0.15
same,Log2 (PYR/DMSO),[4],0.17
same,Log2 (PYR/DMSO),[5],0.15
same,Log2 (PYR/DMSO),[6],0.20
same,Log2 (PYR/DMSO),[7],0.21
same,Log2 (PYR/DMSO),[8],0.16
same,Log2 (PYR/DMSO),[9],-0.04
same,Log2 (PYR/DMSO),[10],0.17
same,Log2 (PYR/DMSO),[11],0.23
same,Log2 (PYR/DMSO),[12],0.18
same,Log2 (PYR/DMSO),[13],0.15
same,Log2 (PYR/DMSO),[14],0.23
same,Log2 (PYR/DMSO),[15],-0.04
same,Log2 (PYR/DMSO),[16],0.14
same,Log2 (PYR/DMSO),[17],0.14
same,Log2 (PYR/DMSO),[18],0.14
same,Log2 (PYR/DMSO),[19],0.19
same,Log2 (PYR/DMSO),[20],0.14
same,"Log2 (PYR/DMSO), UBE2S",[21],0.25
same,Log2 (PYR/DMSO),[22],0.21
same,Log2 (PYR/DMSO),[23],0.14
same,Log2 (PYR/DMSO),[24],-0.04
same,"Log2 (PYR/DMSO), CASP8",[25],0.34
same,"Log2 (PYR/DMSO), EIF5A2",[26],-0.18
same,Log2 (PYR/DMSO),[27],-0.04
same,"Log2 (PYR/DMSO), RBCK1",[28],-0.16
same,Log2 (PYR/DMSO),[29],0.16
